Results on 10 compounds are retold here after patent US20200361895A1, “NOVEL SULFONAMIDE CARBOXAMIDE COMPOUNDS” (Inflazome Limited, priority 2017, published 2020).

In experiment [1] the target is T1, NLRP3 (Homo sapiens, UniProt Q96P20). The experiment can be described thus: Human whole blood IL1β release assay (LPS + nigericin, AlphaLisa IL-1β; HWB IC50). The following applies: IL-1β release. Format: cell-based. Details: Human whole blood in Li-heparin tubes was obtained from healthy donors from a volunteer donor panel; from tissue; host or cells: human whole blood from healthy donors. In outline:
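Donor Li-heparin whole blood primed with 1 μg/ml LPS, given compound (8-point half-log series, 10 μM top; DMSO 0.1% final) for 3 h at 37 °C, then nigericin 10 μM final for 1 h. Supernatant IL-1β measured by AlphaLisa; IC50 from 4-parameter variable-slope fit.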
In general terms: In Alpha technology, singlet oxygen from a donor bead excites a nearby acceptor bead.

Experiment [2] has as its target T1, NLRP3. Nature of the experiment: THP-1 cells pyroptosis assay (LPS + nigericin, resazurin readout; THP IC50). The format is cell-based. Details: Seed THP-1 cells (25,000 cells/well) containing 1.0 μg/ml LPS in 40 μl of RPMI medium; host or cells: THP-1 cells. A digest of the protocol: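 Human THP-1 cells, 25,000/well in serum-free RPMI with 1 μg/ml LPS, treated 3 hrs at 37° C with compound (8-point half-log, 10 μM top, 0.1% DMSO), then 5 μM nigericin 1 hr. Viability by 100 μM resazurin fluorescence after 1-2 hrs; IC50 by 4-parameter fit.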
In general terms: Alamar Blue is a resazurin reagent that responds to reducing activity.

The structures appear in SMILES notation. Counter-ions that a name gives are not always drawn.

T1 sequence (Q96P20 whole entry): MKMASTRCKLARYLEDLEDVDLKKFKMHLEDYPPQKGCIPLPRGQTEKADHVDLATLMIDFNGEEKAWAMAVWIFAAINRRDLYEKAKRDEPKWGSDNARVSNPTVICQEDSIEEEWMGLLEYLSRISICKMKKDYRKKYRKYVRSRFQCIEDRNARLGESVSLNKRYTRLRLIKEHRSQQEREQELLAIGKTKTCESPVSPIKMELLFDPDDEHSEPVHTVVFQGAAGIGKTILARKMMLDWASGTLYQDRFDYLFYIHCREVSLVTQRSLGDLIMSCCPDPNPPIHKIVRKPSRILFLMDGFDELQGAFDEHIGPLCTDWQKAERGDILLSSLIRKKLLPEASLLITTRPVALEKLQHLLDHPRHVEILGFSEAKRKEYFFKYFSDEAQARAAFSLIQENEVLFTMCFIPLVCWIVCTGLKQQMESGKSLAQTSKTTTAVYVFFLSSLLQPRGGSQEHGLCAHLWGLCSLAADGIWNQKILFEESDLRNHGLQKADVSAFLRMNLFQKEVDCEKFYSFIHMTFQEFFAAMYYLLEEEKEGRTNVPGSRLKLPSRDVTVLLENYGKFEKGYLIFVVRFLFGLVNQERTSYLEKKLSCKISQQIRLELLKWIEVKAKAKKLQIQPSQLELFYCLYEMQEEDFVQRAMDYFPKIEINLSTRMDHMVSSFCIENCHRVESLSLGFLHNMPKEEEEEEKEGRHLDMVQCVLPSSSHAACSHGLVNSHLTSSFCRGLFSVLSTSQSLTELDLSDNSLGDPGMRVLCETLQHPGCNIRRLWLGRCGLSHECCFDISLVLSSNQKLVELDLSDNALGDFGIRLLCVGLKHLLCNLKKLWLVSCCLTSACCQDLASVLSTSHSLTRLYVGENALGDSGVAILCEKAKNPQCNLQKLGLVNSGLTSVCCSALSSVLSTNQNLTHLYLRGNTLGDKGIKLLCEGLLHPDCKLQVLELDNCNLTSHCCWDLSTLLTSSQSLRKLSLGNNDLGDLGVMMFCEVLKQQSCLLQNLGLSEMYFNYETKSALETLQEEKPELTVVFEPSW

On to `O=C(Nc1c(-c2ccnc(OC3CC3)c2)ccc2c1CCO2)NS(=O)(=O)c1ccn(C2CCC2)n1` [Example 266, 1-Cyclobutyl-N-((5-(2-cyclopropoxypyridin-4-yl)-2,3-dihydrobenzofuran-4-yl)carbamoyl)-1H-pyrazole-3-sulfonamide, sodium salt], for which the IC50 was at most 1000 nM on NLRP3 [1] and at most 500 nM at NLRP3 [2].
The corresponding values for `COc1cc(-c2ccc3c(c2NC(=O)NS(=O)(=O)c2ccn(CC4CC4)n2)CCO3)ccn1` [Example 267, 1-(Cyclopropylmethyl)-N-((5-(2-methoxypyridin-4-yl)-2,3-dihydrobenzofuran-4-yl)carbamoyl)-1H-pyrazole-3-sulfonamide, sodium salt] are at most 500 nM and at most 500 nM.
As for `Cc1cc(-c2ccc3c(c2NC(=O)NS(=O)(=O)c2ccn(C4CCC4)n2)CCC3)ccn1` [Example 269, 1-Cyclobutyl-N-((5-(2-methylpyridin-4-yl)-2,3-dihydro-1H-inden-4-yl)carbamoyl)-1H-pyrazole-3-sulfonamide, sodium salt], the concentration for half-maximal inhibition (IC50) on NLRP3 [1] and on NLRP3 [2] was at most 500 nM each time.
For the compound `Cc1cc(-c2ccc3c(c2NC(=O)NS(=O)(=O)c2ccn(C4CC4)n2)CCC3)ccn1` [Example 270, 1-Cyclopropyl-N-((5-(2-methylpyridin-4-yl)-2,3-dihydro-1H-inden-4-yl)carbamoyl)-1H-pyrazole-3-sulfonamide, sodium salt], the IC50 on NLRP3 [1] and at NLRP3 [2] was at most 500 nM throughout.
As to `N#Cc1cc(-c2ccc3c(c2NC(=O)NS(=O)(=O)c2ccn(CC4CC4)n2)CCC3)ccn1` [Example 271, N-((5-(2-Cyanopyridin-4-yl)-2,3-dihydro-1H-inden-4-yl)carbamoyl)-1-(cyclopropylmethyl)-1H-pyrazole-3-sulfonamide], the IC50 on NLRP3 [1] and at NLRP3 [2] was at most 500 nM throughout.
As for `CC(C)(CN1CCC1)n1ccc(S(=O)(=O)NC(=O)Nc2c(-c3ccnc(OC4CC4)c3)ccc3c2CCC3)n1` [Example 274, 1-(1-(Azetidin-1-yl)-2-methylpropan-2-yl)-N-((5-(2-cyclopropoxypyridin-4-yl)-2,3-dihydro-1H-inden-4-yl)carbamoyl)-1H-pyrazole-3-sulfonamide, sodium salt], the IC50 at NLRP3 [1] and at NLRP3 [2] was at most 500 nM throughout.
For the compound `O=C(Nc1c(-c2ccnc(OC(F)F)c2)ccc2c1CCO2)NS(=O)(=O)c1ccn(C2CCC2)n1` [Example 275, 1-Cyclobutyl-N-((5-(2-(difluoromethoxy)pyridin-4-yl)-2,3-dihydrobenzofuran-4-yl)carbamoyl)-1H-pyrazole-3-sulfonamide, sodium salt], the concentration for half-maximal inhibition (IC50) at NLRP3 [1] and on NLRP3 [2] was at most 500 nM in each case.
As to `O=C(Nc1c(-c2ccnc(OC3CC3)c2)ccc2c1CCO2)NS(=O)(=O)c1ccn(C2CC2)n1` [Example 276, N-((5-(2-Cyclopropoxypyridin-4-yl)-2,3-dihydrobenzofuran-4-yl)carbamoyl)-1-cyclopropyl-1H-pyrazole-3-sulfonamide, sodium salt], the results for the IC50 on NLRP3 [1] and on NLRP3 [2] were at most 1000 nM and at most 500 nM, respectively.
In the case of `O=C(Nc1c(-c2ccnc(OC(F)F)c2)ccc2c1CCO2)NS(=O)(=O)c1ccn(C2CC2)n1` [Example 277, 1-Cyclopropyl-N-((5-(2-(difluoromethoxy)pyridin-4-yl)-2,3-dihydrobenzofuran-4-yl)carbamoyl)-1H-pyrazole-3-sulfonamide, sodium salt], the IC50 at NLRP3 [1] and at NLRP3 [2] was at most 500 nM in each case.
`[2H]C([2H])([2H])Oc1cc(-c2ccc3c(c2NC(=O)NS(=O)(=O)c2ccn(C4CC4)n2)CCO3)ccn1` [Example 278, 1-Cyclopropyl-N-((5-(2-(methoxy-d3)pyridin-4-yl)-2,3-dihydrobenzofuran-4-yl)carbamoyl)-1H-pyrazole-3-sulfonamide, sodium salt]: the IC50 at NLRP3 [1] and at NLRP3 [2] was at most 500 nM throughout.

In general, IC50 refers to the concentration needed to halve the response being measured.
